From patent publication USRE46397E1, “Slow release of organic salts of local anesthetics for pain relief” (SVIP5 LLC, priority 2007, dated 2017)
Where two headings read alike, the source gives them in different places.

Key:
male, Sprague-Dawley rat = test: Radiant heat pain threshold test after introducing particles into a paraspinal pocket; assay type: in vivo; conditions: 20 seconds cut-off, treated right side
Experimental: To test the local anesthetic efficacy and duration of effect induced by bupivacaine palmitate particles, a treatment and control side in a male, Sprague-Dawley rat (250-300 g) was employed. The animal was anesthetized with isoflurane inhalation (2.5-3%), whereupon the back was partly shaved. A 16 g needle was introduced deep to the shaved skin on the left mid paraspinal back and moved side to side to clear a small (1.0 cm diameter) pocket. A similar procedure was performed on the right side. The needle was then used to introduce test local anesthetic bupivacaine palmitate particles into the pocket on the right side.
The rat was awakened and placed in a Decapicone for restraint. As restraint itself can produce endogenous analgesic effects, the animal was allowed to rest quietly in the cone for 15 min prior to any testing. Radiant heat from a focused projection bulb with area of approximately 0.5 cm^2 was then directed to the test areas to assess the pain threshold several times on each side. The light was applied until the rat attempted to move within the restraint cone, at which time the light heat stimulus was turned off. The light heat stimulus was never allowed to exceed a 20 seconds interval in order to avoid permanent damage to the skin or undue discomfort.
The post-procedural results at 15 min, 1 and 2 days are represented in average number of seconds before movement: […]

[1] = cited from earlier work; for Onset: in vivo; for Duration: without epinephrine
[2] = cited from earlier work; for Maximum Dose: without epinephrine

Structure (SMILES)	average number of seconds before movement (male, Sprague-Dawley rat; Day 0 (15 min post-procedure), radiant heat) [s]	average number of seconds before movement (male, Sprague-Dawley rat; Day 1, radiant heat) [s]	average number of seconds before movement (male, Sprague-Dawley rat; Day 2, radiant heat) [s]	Onset [1]	Duration (with Epinephrine) [1]	Duration [1] [h]	Maximum Dose (with Epinephrine) [2]	Maximum Dose [2] [mg/kg]	Maximum Dose ([2]; total in 24 hrs) [mg in 24 hrs]
CCCCN1CCCCC1C(=O)Nc1c(C)cccc1C (stereo not shown) [Bupivacaine]	>20	16	7.6	Slow	(8 h)	4	(3 mg/kg)	2.5	
CCN(CC)CCOC(=O)c1ccc(N)cc1Cl [Chloroprocaine]				Rapid	(90 min)	0.5	(15 mg/kg)	10	
CCCN(CC)C(CC)C(=O)Nc1c(C)cccc1C (stereo not shown) [Etidocaine]				Rapid	(8 h)	4	(4 mg/kg)	2.5	
CCCCN1CCCC[C@H]1C(=O)Nc1c(C)cccc1C [Levobupivacaine]				Medium	(8-12 h)	4 to 6		2.0	400
CCN(CC)CC(=O)Nc1c(C)cccc1C [Lidocaine, 2-(diethylamino)-N-(2,6-dimethylphenyl)-acetamide]				Rapid	(240 min)	2	(7 mg/kg)	4.5	
Cc1cccc(C)c1NC(=O)C1CCCCN1C (stereo not shown) [Mepivacaine]				Rapid	(360 min)	3	(7 mg/kg)	5	
CCCNC(C)C(=O)Nc1ccccc1C (stereo not shown) [Prilocaine]				Medium	(360 min)	1.5	(7.5 mg/kg)	5	
CCN(CC)CCOC(=O)c1ccc(N)cc1 [Procaine]				Slow	(90 min)	0.75	(10 mg/kg)	8	
CCCN1CCCC[C@H]1C(=O)Nc1c(C)cccc1C [Ropivacaine]				Medium	(6 h)	3		2 to 3	
CCCCNc1ccc(C(=O)OCCN(C)C)cc1 [Tetracaine]				Slow	(10 h)	3	(2.5 mg/kg)	1.5	
